According to US11479587B2, “Cationic intrinsically disordered antimicrobial peptides” (priority 2016, dated 2022):
Values joined by “and” are separate entries in the source; they are usually repeats but may differ in a detail not shown here. Identical values can stand only once. Like-named read-outs stand apart in the source and are kept apart here. Non-standard residues stand in square brackets, D forms with d. Residues, ends and D or L forms follow the SMILES beside them. *: point of attachment. Palmitoyl = CCCCCCCCCCCCCCCC(=O)*; Dap = NC[C@H](N)C(=O)O

Tests used:
[1] = test system: methicillin-resistant S. aureus strain (ATCC 43300); format: cell-based, Staphylococcus aureus
Description: Furthermore, sensitivity of a methicillin-resistant S. aureus strain (ATCC 43300) was investigated for palmitoylated CIDAMPs in a microtiter plate screening model, with incubation in Mueller-Hinton medium at 37° C. for 18 h using resazurin as a marker for cell viability.
A sample of each culture was then diluted 40-fold in fresh broth and incubated at 37° C. for 1.5-3 h. […] All the plates were covered and incubated at 37° C. for 18 h.
(§1) Inhibition of bacterial growth was determined using resazurin as a marker for cell viability. Resazurin was added to each well, at 0.001% final concentration, and plates incubated at 37° C. for 2 h. Fluorescence intensity was measured, using F (top read), ex 560/10 nm, em 590/10 nm, using a Tecan M1000 Pro monochromator plate reader.

[2] = Cytotoxicity (resazurin) assay
How it was run: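 HEK293 cells (4000/well) in DMEM with 10% FBS exposed to compound for 20 h at 37 °C, 5% CO2. Resazurin (100 μM final) added for a further 3 h and fluorescence read at 560/590 nm. CC50 obtained from dose–response fit of percentage cytotoxicity.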

Hemolysis assay = format: cell-based
How it was run: (§2)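 Washed EDTA-blood erythrocytes in 5% PBS, pH 7.4, were rotated 1 h at 37° C with peptides at 0, 3, 10, 30, 60 μm. Hemoglobin release read at 540 nm as % of 0.1% Triton X-100 hemolysis; CC50 from dose-response curve of triplicates.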

erythrocytes = test: Hemolysis assay; format: cell-based
How it was run: as §2

P. aeruginosa ATCC 27853 = format: cell-based, Pseudomonas aeruginosa; conditions: ATCC 27853, 2 h
Description: as §1

A. baumannii ATCC 19606 = format: cell-based, Acinetobacter baumannii
Description: as §1

E. coli ATCC 25922 = format: cell-based, Escherichia coli
Description: as §1

[3] = test system: Escherichia coli ATCC11775; test: CFU-assay, antimicrobial activity spectrum; format: cell-based; conditions: pH 5.5, 1% TSB
S. aureus ATCC 6538 = test: CFU-assay, S. aureus-cidal activity; format: cell-based, Staphylococcus aureus; conditions: pH 5.5, 1% TSB
How it was run: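 Bactericidal CFU-assay in nutrient-deficient 10 mM sodium phosphate buffer pH 5.5 with 0.25% glucose, counting surviving colonies across twofold peptide dilutions from 300 μg/ml to 19 ng/ml. Output is minimal bactericidal concentration (e.g. MBC90, MBC100); some peptides also tested at pH 7.0.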

P. aeruginosa ATCC 10145 = test: CFU-assay, P. aeruginosa-cidal activity; format: cell-based, Pseudomonas aeruginosa
[4] = test system: Burkholderia cepacia ATCC 25416; test: CFU-assay, Burkholderia cepacia-cidal activity; format: cell-based; conditions: pH 5.5, 0.25% glucose
[5] = test system: Candida albicans ATCC 24433; test: CFU-assay, Candida albicans-cidal activity; format: cell-based
Description: Thus, within the present invention, the antimicrobial activity is generally measured in nutrient deficient 10 mM sodium phosphate buffer pH 5.5, containing 0.25% glucose, using the CFU-assay according to Steinberg and Lehrer, 1997 (supra), unless otherwise indicated. The CFU-assay allows determination of the minimal bactericidal concentration (MBC, e.g., MBC90 and MBC100; i.e. the concentration of compound required to achieve a specified reduction in bacterial cell number (microbial death or killing)). […]
HR 1-17 affects C. albicans ATCC 24433 with highest activity at pH 5.5 in the absence of TSB in the medium (see Tables 12, 24). […] Furthermore, the substitution of any of the Arg residues by Gly leads to a dramatic reduction or loss of candidacidal activity (see Table 24).

[6] = erythrocytes, read-out: Hemolysis (CC50)

Molecule: CCCCCCCCCCCCCCCC(=O)NCC(=O)N[C@@H](CN)C(=O)NCC(=O)N[C@@H](CN)C(=O)O [Pal-GDap4, Pal-GDapGDap] (Palmitoyl-G[Dap]G[Dap]-OH)
- MIC, S. aureus ATCC 43300 ([1]; ATCC 43300, 18 h): ≥8 µg/mL
- MIC, C. albicans ATCC 90028 (C. albicans ATCC 928; ATCC 928): ≥8 µg/mL
- MIC (C. albicans ATCC 928; ATCC 928, 18 h, pH 7.4): 1 to 32 µg/mL
- MIC, C. neoformans ATCC 208821 (C. neoformans): ≥1 µg/mL
- CC50 [2]: > 32 µg/mL
- HC50 (Hemolysis assay): > 300 µg/mL
- hemolytic activity (in words) (erythrocytes): low hemolytic activity

Molecule: CCCCCCCCCCCCCCCC(=O)NCC(=O)N[C@@H](CCCNC(=N)N)C(=O)N[C@@H](CCCNC(=N)N)C(=O)NCC(=O)NCC(=O)N[C@@H](CCCNC(=N)N)C(=O)NCC(=O)NCC(=O)N[C@@H](CCCNC(=N)N)C(=O)NCC(=O)N[C@@H](CCCNC(=N)N)C(=O)O [Pal-GR11] (HELM PEPTIDE1{[CCCCCCCCCCCCCCCC(=O)[*:2]].G.R.R.G.G.R.G.G.R.G.R}$$$$V2.0)
- MIC, S. aureus ATCC 43300 ([1]; ATCC 43300, 18 h): ≥4 µg/mL
- MIC, P. aeruginosa ATCC 27853 (P. aeruginosa ATCC 27853): ≥16 µg/mL
- MIC, C. albicans ATCC 90028 (C. albicans ATCC 928; ATCC 928): ≥4 µg/mL
- MIC, C. neoformans ATCC 208821 (C. neoformans): ≥4 µg/mL
- MIC, A. baumannii ATCC 19606 (A. baumannii ATCC 19606; ATCC 19606, 2 h): ≥8 µg/mL
- CC50 [2]: > 32 µg/mL
- MIC, E. coli ATCC 25922 (E. coli ATCC 25922; ATCC 25922, 2 h): ≥8 µg/mL
- HC50 (Hemolysis assay): 90 µg/mL

Molecule: CCCCCCCCCCCCCCCC(=O)N[C@@H](CCCNC(=N)N)C(=O)NCC(=O)N[C@@H](CO)C(=O)N[C@@H](CCCNC(=N)N)C(=O)N[C@@H](CO)C(=O)NCC(=O)N[C@@H](CCC(N)=O)C(=O)N[C@@H](CO)C(=O)N[C@@H](CO)C(=O)N[C@@H](CCCNC(=N)N)C(=O)NCC(=O)N[C@@H](CCC(=O)O)C(=O)N[C@@H](CCCNC(=N)N)C(=O)N[C@@H](CCCNC(=N)N)C(=O)O [Pal-HR 1-11 2H2R-14] (HELM PEPTIDE1{[CCCCCCCCCCCCCCCC(=O)[*:2]].R.G.S.R.S.G.Q.S.S.R.G.E.R.R}$$$$V2.0)
- MIC, S. aureus ATCC 43300 ([1]; Mueller-Hinton medium): ≥8 µg/mL
- MIC, C. neoformans ATCC 208821 (C. neoformans): ≥8 µg/mL
- MIC, A. baumannii ATCC 19606 (A. baumannii ATCC 19606; Mueller-Hinton medium): ≥4 µg/mL
- CC50 [2]: > 32 µg/mL
- MIC, E. coli ATCC 25922 (E. coli ATCC 25922; Mueller-Hinton medium): ≥8 µg/mL
- HC50 (Hemolysis assay; [6]): > 300 µg/mL

Molecule: CCCCCCCCCCCCCCCC(=O)N[C@@H](CCCNC(=N)N)C(=O)NCC(=O)N[C@@H](CO)C(=O)N[C@@H](CCCNC(=N)N)C(=O)N[C@@H](CO)C(=O)NCC(=O)N[C@@H](CCC(N)=O)C(=O)N[C@@H](CO)C(=O)N[C@@H](CO)C(=O)N[C@@H](CCCNC(=N)N)C(=O)NCC(=O)N[C@@H](CCC(=O)O)C(=O)N[C@@H](CCCNC(=N)N)C(=O)N[C@@H](CCCNC(=N)N)C(=O)NCC(=O)N[C@@H](CO)C(=O)N[C@@H](CO)C(=O)N[C@@H](CO)C(=O)NCC(=O)N[C@@H](CO)C(=O)N[C@@H](CO)C(=O)N[C@@H](CO)C(=O)N[C@@H](CCCNC(=N)N)C(=O)O [Pal-HR 1-11 3H3R] (HELM PEPTIDE1{[CCCCCCCCCCCCCCCC(=O)[*:2]].R.G.S.R.S.G.Q.S.S.R.G.E.R.R.G.S.S.S.G.S.S.S.R}$$$$V2.0)
- MIC, S. aureus ATCC 43300 ([1]; Mueller-Hinton medium): >32 µg/mL
- MIC, C. albicans ATCC 90028 (C. albicans ATCC 928): ≥32 µg/mL
- MIC, C. neoformans ATCC 208821 (C. neoformans): ≥32 µg/mL
- MIC, A. baumannii ATCC 19606 (A. baumannii ATCC 19606; Mueller-Hinton medium): ≥8 µg/mL
- CC50 [2]: > 32 µg/mL
- MIC, E. coli ATCC 25922 (E. coli ATCC 25922; Mueller-Hinton medium): ≥32 µg/mL
- HC50 (Hemolysis assay; [6]): > 300 µg/mL

Molecule: CCCCCCCCCCCCCCCC(=O)NCC(=O)N[C@@H](CCCNC(=N)N)C(=O)N[C@@H](CCCNC(=N)N)C(=O)NCC(=O)N[C@@H](CO)C(=O)NCC(=O)N[C@@H](CC(C)C)C(=O)NCC(=O)N[C@@H](CCCNC(=N)N)C(=O)N[C@@H](CO)C(=O)N[C@@H](CO)C(=O)N[C@@H](CO)C(=O)N[C@@H](CCCNC(=N)N)C(=O)O [Pal-HR 1-18 3H3R-GR13] (HELM PEPTIDE1{[CCCCCCCCCCCCCCCC(=O)[*:2]].G.R.R.G.S.G.L.G.R.S.S.S.R}$$$$V2.0)
- MIC, S. aureus ATCC 43300 ([1]; ATCC 43300, 18 h): ≥16 µg/mL
- MIC, C. neoformans ATCC 208821 (C. neoformans): ≥16 µg/mL
- MIC, A. baumannii ATCC 19606 (A. baumannii ATCC 19606; ATCC 19606, 2 h): ≥16 µg/mL
- CC50 [2]: > 32 µg/mL
- HC50 (Hemolysis assay): > 300 µg/mL
- hemolytic activity (in words) (erythrocytes): low hemolytic activity

Molecule: CCCCCCCCCCCCCCCC(=O)NCC(=O)N[C@@H](CCCNC(=N)N)C(=O)N[C@@H](Cc1c[nH]cn1)C(=O)NCC(=O)N[C@@H](CO)C(=O)NCC(=O)N[C@@H](CC(C)C)C(=O)NCC(=O)N[C@@H](Cc1c[nH]cn1)C(=O)N[C@@H](CO)C(=O)N[C@@H](CO)C(=O)N[C@@H](CO)C(=O)N[C@@H](Cc1c[nH]cn1)C(=O)NCC(=O)N[C@@H](CCC(N)=O)C(=O)N[C@@H](Cc1c[nH]cn1)C(=O)NCC(=O)N[C@@H](CO)C(=O)NCC(=O)N[C@@H](CO)C(=O)NCC(=O)N[C@@H](CCCNC(=N)N)C(=O)O [Pal-HR 1-18] (HELM PEPTIDE1{[CCCCCCCCCCCCCCCC(=O)[*:2]].G.R.H.G.S.G.L.G.H.S.S.S.H.G.Q.H.G.S.G.S.G.R}$$$$V2.0)
- MIC, A. baumannii ATCC 19606 (A. baumannii ATCC 19606; ATCC 19606, 2 h): ≥32 µg/mL
- CC50 [2]: > 32 µg/mL and > 13.7 µM
- HC50 (Hemolysis assay): > 300 µg/mL
- HC50 at 1 h (Hemolysis assay; human, washed erythrocytes from EDTA-blood, pH 7.4): > 130 µM
- hemolytic activity (in words) (erythrocytes): low hemolytic activity

Molecule: CCCCCCCCCCCCCCCC(=O)NCC(=O)N[C@@H](CCCN)C(=O)N[C@@H](CCCN)C(=O)NCC(=O)NCC(=O)N[C@@H](CCCN)C(=O)NCC(=O)NCC(=O)N[C@@H](CCCN)C(=O)NCC(=O)N[C@@H](CCCN)C(=O)NCC(=O)N[C@@H](CCCN)C(=O)O [Pal-Orn-GR13, Pal-GOOGGOGGOGOGO] (HELM PEPTIDE1{[CCCCCCCCCCCCCCCC(=O)[*:2]].G.[Orn].[Orn].G.G.[Orn].G.G.[Orn].G.[Orn].G.[Orn]}$$$$V2.0)
- CC50 [2]: > 32 µg/mL
- HC50 (Hemolysis assay): > 300 µg/mL
- hemolytic activity (in words) (erythrocytes): low hemolytic activity

Molecule: GRHGSGLGHSSSHGQHGSGSGRSSSRGPY (Peptide derived from human hornerin (HR 1-17))
- MBC90 [3]: >300 µg/mL
- MBC100 [3]: >300 µg/mL
- MBC90 (S. aureus ATCC 6538): >300 µg/mL
- MBC100 (S. aureus ATCC 6538): >300 µg/mL
- MBC90 (P. aeruginosa ATCC 10145; pH 5.0, 0.25% glucose): 0.038 µg/mL and 0.0375 µg/mL
- MBC100 (P. aeruginosa ATCC 10145; pH 5.0, 0.25% glucose): 0.15 µg/mL
- MBC100 (P. aeruginosa ATCC 10145; pH 5.5, 0.25% glucose): 0.15 µg/mL and 0.3 µg/mL
- MBC90 (P. aeruginosa ATCC 10145; pH 5.5, 1% TSB): 0.59 µg/mL
- MBC100 (P. aeruginosa ATCC 10145; pH 5.5, 1% TSB): 18.75 µg/mL
- MBC90 [4]: >300 µg/mL
- MBC100 [4]: >300 µg/mL
- MBC90 [5]: 0.56 µM
- MBC90 ([5]; pH 5.5, 0.25% glucose): 1.18 µg/mL
- MBC100 ([5]; pH 5.5, 0.25% glucose): 9.38 µg/mL
- MBC100 ([5]; pH 5.5, 1% TSB): 150 µg/mL and >300 µg/mL
- MBC90 ([5]; pH 7.2, 1.% TSB): >300 µg/mL
- MBC100 ([5]; pH 7.2, 1.% TSB): >300 µg/mL
